The subject of data set [1] is syngeneic murine tumours or human tumour xenografts. The settings on record: mouse, in vivo; cited from earlier work.
A further data set has as its system human tumours. Conditions: monotherapy, cited from earlier work.
Another data set is described as follows: Hygroscopicity. The data set is classed as physicochemical. Conditions: sodium salt.
Data set [2] can be described thus: Storage under controlled relative humidity (solid form stability). The data set is classed as physicochemical. The source says: A high relative humidity is here defined as a relative humidity of about 70 to 90%. […] In particular, the water content can be well controlled and remains constant, over time.
Data set [3] is described as follows: Dynamic Vapour Sorption (DVS) experiment. The data set is classed as physicochemical. The settings on record: 25° C. The method, then:
DVS: Dynamic vapour sorption measurements were carried out with an instrument of Surface Measurement Systems (http:www.smsuk.co.uk). The weight change of the investigated sample is monitored while the relative humidity is changed over a range from 0% r.h. to 95% r.h. at a change rate of 5% per hour.
About 10 mg of a mixture of forms B and C is placed into a suitable sample pan and investigated with a dynamic vapour sorption apparatus of Surface Measurement Systems, DVS-1 (series 1000) using software version DVS win SP2, V3.01 at 25° C. The initial relative humidity is 50% and the initial mass is 100%, thereafter the humidity is increased to 95% and kept at this level for 2 hours, then the humidity is decreased to 0%, and kept at 0% during 10 hours, then raised again to 95%. Change rates are always 5% per hour.

Setting [4] is: 52% relative humidity, ambient temperature, about two weeks.

Counter-ions that a name gives are not always drawn.

On to `Cc1ccc2c(=O)c3cccc(CC(=O)O)c3oc2c1C` [DMXAA], for which the “antivascular activity, tumour blood flow” value in data set [1] is listed as “prolonged inhibition of tumour blood flow leading to extensive regions of haemorrhagic necrosis”. Further, the tumour responses entry in the data set on human tumours (phase I trials) was “few tumour responses were achieved”. For the same molecule, the tumour blood flow entry in the data set with human tumours (well-tolerated doses, dynamic MRI) was “significant reduction in tumour blood flow”.
For the molecule `Cc1ccc2c(=O)c3cccc(CC(=O)O)c3oc2c1C` [amorphous DMXAA sodium salt, DMXAA sodium salt, reference compound], the hygroscopicity result in the data set “Hygroscopicity” was “very hygroscopic”.
Still for that read-out and setting: the value for `Cc1ccc2c(=O)c3cccc(CC(=O)O)c3oc2c1C` [form E, DMXAA sodium salt] was “hygroscopic”.
Consider `Cc1ccc2c(=O)c3cccc(CC(=O)O)c3oc2c1C` [form F, DMXAA sodium salt], for which, in data set [2] (setting [4]), the “change of the crystal form on storage” value was “did not lead to a change of the crystal form”. Moreover, the “water content after storage” value in data set [2] (setting [4]) is recorded as “about 3%”. For the same molecule, the “form conversion on storage” value in data set [2] (75% relative humidity at 40° C.) is “transforms into form B within a few days”; in data set [2] (open container, 75% relative humidity, about 34 hours) it was “transformed into form B”. Moreover, in “Hygroscopicity”, the hygroscopicity result is reported as “hygroscopic”.
In the case of `Cc1ccc2c(=O)c3cccc(CC(=O)O)c3oc2c1C` [form L, DMXAA sodium salt], in “Hygroscopicity”, the hygroscopicity result was “hygroscopic”.
On to `Cc1ccc2c(=O)c3cccc(CC(=O)[O-])c3oc2c1C.[Na+]` [mixture of forms B and C, DMXAA sodium salt], for which, in data set [3] (at 95% r.h.), the water adsorbed entry is listed as “about 1%”. In addition, in data set [3] (scanning r.h. to 0%), the water release entry was “all the water is released”.
